Source: publication PMC6009944, “Synthesis, antitumour activities and molecular docking of thiocarboxylic acid ester-based NSAID scaffolds: COX-2 inhibition and mechanistic studies” (Journal of Enzyme Inhibition and Medicinal Chemistry, 2018)
Read-outs that look alike come from different tables or passages of the source.

How the values were obtained:
MCF-7 = assay: MTT antitumor assay, MCF-7
Experimental: (§2) The evaluation of the antitumour activity was performed using tetrazolium salt MTT (3–(4,5-dimethyl-2-thiazolyl)-2,5-diphenyl-2H-tetrazolium bromide) assay as reported[47–50].

HCT-116 = assay: MTT antitumor assay, HCT-116
Experimental: as §2

Caco-2 = assay: MTT antitumor assay, Caco-2; conditions: Homo sapiens, Caco-2, read-out: IC50 (μM) Caco-2
Experimental: as §2

HepG2 = assay: MTT antitumor assay, HepG2; conditions: Homo sapiens, HepG2, read-out: IC50 (μM) HepG2
Experimental: as §2

HER2 = molecular target: T1, HER2 (Homo sapiens, UniProt P04626); assay: Kinase inhibition assay (Kinase-Glo Plus), HER2; assay type: biochemical; conditions: read-out: % inhibition of 10 μM HER2; 10 μM compound
T1 construct: purchased BPS Bioscience
T1 sequence (P04626 23-1255): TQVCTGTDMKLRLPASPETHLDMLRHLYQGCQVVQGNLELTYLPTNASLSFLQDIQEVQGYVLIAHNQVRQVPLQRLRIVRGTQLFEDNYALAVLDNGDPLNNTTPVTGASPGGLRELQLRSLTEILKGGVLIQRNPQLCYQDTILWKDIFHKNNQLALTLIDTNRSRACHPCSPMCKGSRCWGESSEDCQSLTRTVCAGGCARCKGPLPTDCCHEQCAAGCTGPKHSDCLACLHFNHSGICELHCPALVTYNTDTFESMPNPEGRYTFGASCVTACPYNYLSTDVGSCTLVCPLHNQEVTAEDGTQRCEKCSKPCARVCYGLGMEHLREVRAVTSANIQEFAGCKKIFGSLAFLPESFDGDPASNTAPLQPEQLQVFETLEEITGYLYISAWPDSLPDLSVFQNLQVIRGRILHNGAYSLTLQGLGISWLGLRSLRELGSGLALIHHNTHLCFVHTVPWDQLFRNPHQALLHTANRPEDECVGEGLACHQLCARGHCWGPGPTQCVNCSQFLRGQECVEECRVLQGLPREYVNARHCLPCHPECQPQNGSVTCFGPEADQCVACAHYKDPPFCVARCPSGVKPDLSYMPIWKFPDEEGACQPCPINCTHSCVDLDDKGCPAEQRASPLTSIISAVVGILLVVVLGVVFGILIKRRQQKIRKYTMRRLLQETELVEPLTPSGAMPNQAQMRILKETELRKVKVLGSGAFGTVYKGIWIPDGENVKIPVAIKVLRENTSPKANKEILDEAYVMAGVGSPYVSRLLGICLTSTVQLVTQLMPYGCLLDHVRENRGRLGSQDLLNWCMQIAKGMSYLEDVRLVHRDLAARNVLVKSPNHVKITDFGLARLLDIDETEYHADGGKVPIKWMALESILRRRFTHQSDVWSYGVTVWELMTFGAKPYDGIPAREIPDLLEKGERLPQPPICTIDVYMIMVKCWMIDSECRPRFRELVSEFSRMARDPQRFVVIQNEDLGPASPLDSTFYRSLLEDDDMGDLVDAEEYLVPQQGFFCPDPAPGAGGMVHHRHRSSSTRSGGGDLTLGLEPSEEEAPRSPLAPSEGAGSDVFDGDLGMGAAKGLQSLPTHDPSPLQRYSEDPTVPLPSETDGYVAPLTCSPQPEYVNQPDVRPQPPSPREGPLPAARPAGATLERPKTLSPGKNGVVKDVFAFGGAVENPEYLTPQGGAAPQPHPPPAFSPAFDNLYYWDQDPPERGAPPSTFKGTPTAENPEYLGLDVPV
Experimental: (§1) Luminescence signal was measured using a BioTek Synergy 2 microplate reader.

COX-2 = molecular target: T2, COX-2 (Ovis aries, UniProt P79208); assay: In vitro COX-2 enzyme inhibition assay (colorimetric kit); conditions: for SI, selectivity index (COX-1 IC50/COX-2 IC50): COX-2 selectivity over COX-1
T2 sequence (P79208 17-603): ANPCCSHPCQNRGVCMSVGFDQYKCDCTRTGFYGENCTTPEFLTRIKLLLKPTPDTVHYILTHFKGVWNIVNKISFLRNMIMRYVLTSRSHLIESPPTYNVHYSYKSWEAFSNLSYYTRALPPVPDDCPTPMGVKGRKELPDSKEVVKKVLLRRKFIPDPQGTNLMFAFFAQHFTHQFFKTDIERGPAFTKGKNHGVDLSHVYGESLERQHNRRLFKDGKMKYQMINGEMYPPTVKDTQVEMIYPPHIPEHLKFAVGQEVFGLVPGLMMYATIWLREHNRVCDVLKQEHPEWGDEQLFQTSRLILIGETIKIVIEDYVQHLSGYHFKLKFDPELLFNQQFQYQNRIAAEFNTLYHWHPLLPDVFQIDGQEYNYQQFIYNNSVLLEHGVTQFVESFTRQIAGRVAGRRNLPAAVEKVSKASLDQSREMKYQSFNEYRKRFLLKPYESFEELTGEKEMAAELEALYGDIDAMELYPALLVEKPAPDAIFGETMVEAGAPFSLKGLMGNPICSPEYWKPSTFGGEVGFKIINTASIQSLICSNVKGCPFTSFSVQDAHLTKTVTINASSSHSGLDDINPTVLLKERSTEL
Experimental: (§3) IC50 (represented in μM) (The half-maximal inhibitor concentration) values were determined[56–59], and the SI values were calculated[51]^,[52]^,[55] as IC50 (COX-1)/IC50 (COX-2).

HER4 = molecular target: T3, HER4 (Homo sapiens, UniProt Q15303); assay: Kinase inhibition assay (Kinase-Glo Plus), HER4; assay type: biochemical; conditions: read-out: % inhibition of 10 μM HER4; 10 μM compound
T3 construct: purchased BPS Bioscience
T3 sequence (Q15303 26-1308): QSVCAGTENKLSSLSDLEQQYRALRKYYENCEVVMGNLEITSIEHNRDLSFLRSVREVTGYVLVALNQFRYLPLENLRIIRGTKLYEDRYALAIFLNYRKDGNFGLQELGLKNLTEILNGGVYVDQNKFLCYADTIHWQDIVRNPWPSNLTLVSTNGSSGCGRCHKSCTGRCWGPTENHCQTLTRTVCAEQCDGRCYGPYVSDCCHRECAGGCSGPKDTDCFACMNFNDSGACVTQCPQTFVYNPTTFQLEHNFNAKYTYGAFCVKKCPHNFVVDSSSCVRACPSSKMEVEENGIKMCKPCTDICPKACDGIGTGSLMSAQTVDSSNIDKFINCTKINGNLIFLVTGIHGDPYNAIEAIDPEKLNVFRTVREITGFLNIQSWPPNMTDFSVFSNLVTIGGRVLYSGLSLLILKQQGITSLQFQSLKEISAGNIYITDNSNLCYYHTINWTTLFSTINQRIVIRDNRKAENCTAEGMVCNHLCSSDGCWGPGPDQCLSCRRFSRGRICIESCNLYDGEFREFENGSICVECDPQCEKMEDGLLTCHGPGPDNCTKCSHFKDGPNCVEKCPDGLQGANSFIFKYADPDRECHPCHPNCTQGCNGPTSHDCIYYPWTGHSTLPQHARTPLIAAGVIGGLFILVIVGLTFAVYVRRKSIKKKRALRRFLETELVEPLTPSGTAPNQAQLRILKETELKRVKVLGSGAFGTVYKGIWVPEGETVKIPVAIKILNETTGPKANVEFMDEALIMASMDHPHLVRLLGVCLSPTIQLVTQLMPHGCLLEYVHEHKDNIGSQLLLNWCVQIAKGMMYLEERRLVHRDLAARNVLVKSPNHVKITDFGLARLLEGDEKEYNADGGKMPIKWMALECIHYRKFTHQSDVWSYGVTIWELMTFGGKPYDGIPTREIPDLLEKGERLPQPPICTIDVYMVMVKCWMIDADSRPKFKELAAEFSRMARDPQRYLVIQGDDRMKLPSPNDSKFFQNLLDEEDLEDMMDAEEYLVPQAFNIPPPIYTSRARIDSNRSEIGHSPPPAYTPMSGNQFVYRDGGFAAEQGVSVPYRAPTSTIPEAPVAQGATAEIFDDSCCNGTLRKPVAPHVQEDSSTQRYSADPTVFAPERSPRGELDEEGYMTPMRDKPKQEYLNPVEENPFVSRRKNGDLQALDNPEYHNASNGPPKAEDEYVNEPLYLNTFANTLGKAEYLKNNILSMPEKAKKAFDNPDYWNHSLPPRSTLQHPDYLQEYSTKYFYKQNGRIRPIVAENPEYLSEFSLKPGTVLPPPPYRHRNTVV
Experimental: as §1

EGFR = molecular target: T4, EGFR (Homo sapiens, UniProt P00533); assay: Kinase inhibition assay (Kinase-Glo Plus), EGFR; assay type: biochemical; conditions: read-out: % inhibition of 10 μM EGFR; 10 μM compound
T4 construct: purchased BPS Bioscience
T4 sequence (P00533 25-1210): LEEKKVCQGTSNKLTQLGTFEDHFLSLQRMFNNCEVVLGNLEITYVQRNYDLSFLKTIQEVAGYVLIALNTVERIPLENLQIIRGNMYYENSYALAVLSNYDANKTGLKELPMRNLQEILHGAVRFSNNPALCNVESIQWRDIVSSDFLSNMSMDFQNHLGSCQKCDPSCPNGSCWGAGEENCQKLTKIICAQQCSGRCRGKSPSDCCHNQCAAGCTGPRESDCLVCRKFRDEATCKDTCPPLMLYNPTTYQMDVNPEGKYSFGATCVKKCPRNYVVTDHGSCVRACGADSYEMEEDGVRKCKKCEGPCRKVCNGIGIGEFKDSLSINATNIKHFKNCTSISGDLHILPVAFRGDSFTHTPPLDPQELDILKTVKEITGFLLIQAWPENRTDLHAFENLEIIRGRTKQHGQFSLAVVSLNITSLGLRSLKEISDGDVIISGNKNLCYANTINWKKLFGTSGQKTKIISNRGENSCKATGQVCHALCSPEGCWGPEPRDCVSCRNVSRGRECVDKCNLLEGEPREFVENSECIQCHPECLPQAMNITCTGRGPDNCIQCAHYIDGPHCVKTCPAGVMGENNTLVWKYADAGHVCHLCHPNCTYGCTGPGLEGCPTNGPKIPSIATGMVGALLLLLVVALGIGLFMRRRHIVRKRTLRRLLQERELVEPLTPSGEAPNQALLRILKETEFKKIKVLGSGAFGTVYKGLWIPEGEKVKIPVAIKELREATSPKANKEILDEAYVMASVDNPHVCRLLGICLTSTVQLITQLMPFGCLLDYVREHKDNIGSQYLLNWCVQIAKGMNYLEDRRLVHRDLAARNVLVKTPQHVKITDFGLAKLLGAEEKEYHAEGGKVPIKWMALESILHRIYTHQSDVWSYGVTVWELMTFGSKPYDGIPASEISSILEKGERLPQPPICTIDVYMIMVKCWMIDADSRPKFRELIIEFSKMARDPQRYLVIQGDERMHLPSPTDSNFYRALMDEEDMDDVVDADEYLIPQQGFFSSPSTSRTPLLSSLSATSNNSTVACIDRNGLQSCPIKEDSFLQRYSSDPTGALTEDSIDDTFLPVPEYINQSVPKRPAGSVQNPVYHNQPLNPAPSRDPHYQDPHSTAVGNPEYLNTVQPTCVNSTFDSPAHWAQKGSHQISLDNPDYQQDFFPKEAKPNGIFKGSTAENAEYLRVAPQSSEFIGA
Experimental: as §1

cSrc = molecular target: T5, cSrc (Homo sapiens, UniProt P12931); assay: Kinase inhibition assay (Kinase-Glo Plus), cSrc; assay type: biochemical; conditions: for inhibition at 10 µM: read-out: % inhibition, 10 μM compound
T5 construct: purchased BPS Bioscience
T5 sequence (P12931 whole entry): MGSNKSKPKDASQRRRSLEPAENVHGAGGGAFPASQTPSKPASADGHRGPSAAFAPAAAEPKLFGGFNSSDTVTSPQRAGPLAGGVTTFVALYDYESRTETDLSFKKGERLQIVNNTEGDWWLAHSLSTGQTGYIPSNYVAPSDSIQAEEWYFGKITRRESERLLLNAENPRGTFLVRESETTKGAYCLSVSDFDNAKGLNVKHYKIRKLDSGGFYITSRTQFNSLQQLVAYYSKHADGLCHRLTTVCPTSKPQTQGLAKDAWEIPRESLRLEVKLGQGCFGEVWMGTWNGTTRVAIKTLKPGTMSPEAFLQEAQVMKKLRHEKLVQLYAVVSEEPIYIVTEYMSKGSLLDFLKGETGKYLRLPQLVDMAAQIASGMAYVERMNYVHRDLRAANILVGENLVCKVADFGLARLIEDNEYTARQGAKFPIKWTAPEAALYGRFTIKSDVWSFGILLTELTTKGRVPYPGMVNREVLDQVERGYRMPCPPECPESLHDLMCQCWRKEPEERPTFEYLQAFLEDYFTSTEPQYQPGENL
Experimental: as §1

COX-1 = molecular target: T6, COX-1 (Ovis aries, UniProt P05979); assay: In vitro COX-1 enzyme inhibition assay (colorimetric kit)
T6 sequence (P05979 25-600): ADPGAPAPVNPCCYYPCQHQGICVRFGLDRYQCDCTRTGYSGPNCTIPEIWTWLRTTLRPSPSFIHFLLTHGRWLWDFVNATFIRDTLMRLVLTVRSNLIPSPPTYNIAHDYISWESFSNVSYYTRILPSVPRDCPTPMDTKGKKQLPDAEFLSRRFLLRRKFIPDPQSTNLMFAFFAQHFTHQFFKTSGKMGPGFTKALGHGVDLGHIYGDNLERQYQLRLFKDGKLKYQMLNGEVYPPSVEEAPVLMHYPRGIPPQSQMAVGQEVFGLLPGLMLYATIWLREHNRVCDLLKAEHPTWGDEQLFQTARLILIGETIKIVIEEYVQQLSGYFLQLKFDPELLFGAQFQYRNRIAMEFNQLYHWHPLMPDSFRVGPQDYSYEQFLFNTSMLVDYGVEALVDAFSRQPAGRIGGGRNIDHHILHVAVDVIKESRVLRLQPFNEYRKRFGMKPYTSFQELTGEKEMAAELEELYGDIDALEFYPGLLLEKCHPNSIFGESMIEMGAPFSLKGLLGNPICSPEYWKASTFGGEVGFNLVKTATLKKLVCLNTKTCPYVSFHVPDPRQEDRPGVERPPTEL
Experimental: as §3

[1] = read-out: IC50 (μM) MCF-7, human breast adenocarcinoma cell line, MTT, mean ± SD, n = 3
[2] = Homo sapiens, HCT-116, read-out: IC50 (μM) HCT-116, human colon cancer cell line, MTT, mean ± SD, n = 3
[3] = Homo sapiens, MCF7, read-out: IC50 (μM) MCF-7, human breast adenocarcinoma cell line, MTT, mean ± SD, n = 3

Structure (SMILES) | IC50 (HCT-116; [2]) | IC50 (Caco-2) | melting point | IC50 (HepG2) | IC50 (MCF-7; [3]) | other results
O=C(Cc1ccccc1Nc1c(Cl)cccc1Cl)SC1CCCCC1 [6b, S-cyclohexyl-2–(2-((2,6-dichlorophenyl)amino)phenyl)ethanethioate] | 91.2 ± 4.96 µM | > 100 µM | 88 to 90 °C | > 100 µM |  | IC50 (MCF-7; [1]): 95.3 ± 4.96 µM
CC(C(=O)SC1CCCCC1)c1cccc(C(=O)c2ccccc2)c1 (stereo not drawn) [2b, S-cyclohexyl-2–(3-benzoylphenyl)propanethioate] | 18.7 ± 1.5 µM | 21.7 ± 1.9 µM | 69 to 70 °C | 9.36 ± 0.79 µM | 11.9 ± 1.13 µM | inhibition at 10 µM (HER2): 1%; IC50 (COX-2): 660 ± 52 nM; SI, selectivity index (COX-1 IC50/COX-2 IC50) (COX-2): >75.8; inhibition at 10 µM (HER4): 5%; inhibition at 10 µM (EGFR): 0%; inhibition at 10 µM (cSrc): 4%; IC50 (COX-1): > 50 µM
O=C(Cc1ccccc1Nc1c(Cl)cccc1Cl)Sc1ccccc1 [6a, S-phenyl-2–(2-((2,6-dichlorophenyl)amino)phenyl)ethanethioate] | 46.9 ± 3.23 µM | 10.2 ± 0.92 µM | 101 to 102 °C | 26.8 ± 2.08 µM | 6.11 ± 0.31 µM | inhibition at 10 µM (HER2): 1%; IC50 (COX-2): 250 ± 17 nM; SI, selectivity index (COX-1 IC50/COX-2 IC50) (COX-2): >200.0; inhibition at 10 µM (HER4): 5%; inhibition at 10 µM (EGFR): 6%; inhibition at 10 µM (cSrc): 5%; IC50 (COX-1): > 50 µM
CC(C)Cc1ccc(C(C)C(=O)SC2CCCCC2)cc1 (stereo not drawn) [1b, S-cyclohexyl-2–(4-isobutylphenyl)propanethioate] | 97.6 ± 5.12 µM | > 100 µM |  | > 100 µM | > 100 µM | 
CC1=C(CC(=O)Sc2ccccc2)c2cc(F)ccc2C1=Cc1ccc([S+](C)[O-])cc1 (stereo not drawn) [8a, S-phenyl-2–(5-fluoro-2-methyl-1–(4-(methylsulfinyl)benzylidene)-1H-inden-3-yl)ethanethioate] | 9.73 ± 0.85 µM | 15.4 ± 1.37 µM |  | 7.35 ± 0.34 µM | 8.62 ± 0.72 µM | inhibition at 10 µM (HER2): 0%; IC50 (COX-2): 200 ± 16 nM; SI, selectivity index (COX-1 IC50/COX-2 IC50) (COX-2): >250.0; inhibition at 10 µM (HER4): 10%; inhibition at 10 µM (EGFR): 6%; inhibition at 10 µM (cSrc): 4%; IC50 (COX-1): > 50 µM
CN[C@@H]1C[C@H]2O[C@@](C)([C@@H]1OC)n1c3ccccc3c3c4c(c5c6ccccc6n2c5c31)C(=O)NC4 [Staurosporine, reference compound] |  |  |  |  |  | inhibition at 1 µM (cSrc; read-out: % inhibition cSrc): 100%
CC(C(=O)Sc1ccccc1)c1cccc(C(=O)c2ccccc2)c1 (stereo not drawn) [2a, S-phenyl-2–(3-benzoylphenyl)propanethioate] |  | 72.2 ± 4.06 µM | 96 to 98 °C | 59.8 ± 3.55 µM |  | IC50 (MCF-7; [1]): 48.1 ± 3.15 µM; IC50 (HCT-116; read-out: IC50 (μM) HCT-116, human colon cancer cell line, MTT, mean ± SD, n = 3): 61.3 ± 3.97 µM
CC(C(=O)Sc1ccccc1)c1ccc(-c2ccccc2)c(F)c1 (stereo not drawn) [3a, S-phenyl-2–(2-fluoro-[1,1′-biphenyl]-4-yl)propanethioate] | 78.1 ± 4.08 µM | 76.5 ± 4.38 µM | 85 to 86 °C | 68.8 ± 3.87 µM | 63.6 ± 3.62 µM | 
COc1ccc2cc(C(C)C(=O)SC3CCCCC3)ccc2c1 [5b, S-cyclohexyl-(S)-2–(6-methoxynaphthalen-2-yl)propanethioate] | 39.5 ± 2.61 µM | 35.6 ± 2.62 µM | 105 to 106 °C | 19.7 ± 1.57 µM | 28.9 ± 1.58 µM | 
CC(=O)Oc1ccccc1C(=O)Sc1ccccc1 [4a, 2-[(Phenylthio)carbonyl]phenyl acetate] | 85.4 ± 4.57 µM | 80.2 ± 4.5 µM | 72 to 73 °C | 71.1 ± 4.11 µM | 73.7 ± 3.92 µM | 
CC(C)Cc1ccc(C(C)C(=O)Sc2ccccc2)cc1 (stereo not drawn) [1a, S-phenyl-2–(4-isobutylphenyl)propanethioate] | 89.6 ± 4.68 µM | 94.8 ± 4.92 µM |  | 85.1 ± 4.53 µM | 80.4 ± 4.58 µM | 
COc1ccc2cc(C(C)C(=O)Sc3ccccc3)ccc2c1 [5a, S-phenyl-(S)-2–(6-methoxynaphthalen-2-yl)propanethioate] | 51.2 ± 3.71 µM | 63.8 ± 3.58 µM | 115 to 117 °C | 36.8 ± 2.7 µM | 42.6 ± 2.67 µM | 
CC1=C(CC(=O)SC2CCCCC2)c2cc(F)ccc2C1=Cc1ccc([S+](C)[O-])cc1 (stereo not drawn) [8b, S-cyclohexyl-2–(5-fluoro-2-methyl-1–(4-(methylsulfinyl)benzylidene)-1H-inden-3-yl)ethanethioate] | 46.7 ± 2.93 µM | 43.8 ± 2.96 µM | 121 to 122 °C | 22.3 ± 1.96 µM | 34.1 ± 2.07 µM | IC50 (COX-2): 600 ± 55 nM; SI, selectivity index (COX-1 IC50/COX-2 IC50) (COX-2): >83.3; IC50 (COX-1): > 50 µM
O=c1[nH]cc(F)c(=O)[nH]1 [5-FU, 5-Fluorouracil, reference compound] | 5.32 ± 0.17 µM | 6.85 ± 0.34 µM |  | 7.91 ± 0.28 µM | 5.43 ± 0.2 µM | 
CC(=O)Oc1ccccc1C(=O)SC1CCCCC1 [4b, 2-[(Cyclohexylthio)carbonyl]phenyl acetate] | 76.5 ± 4.22 µM | 68.8 ± 3.79 µM | 55 to 56 °C | 63.6 ± 3.91 µM | 46.5 ± 2.84 µM | 
CN(C)C/C=C/C(=O)Nc1cc2c(Nc3ccc(F)c(Cl)c3)ncnc2cc1O[C@H]1CCOC1 [Afatinib, reference compound] | 6.2 ± 0.67 µM | 7.7 ± 0.57 µM |  | 5.4 ± 0.25 µM | 7.1 ± 0.49 µM | 
Cc1ccc(-c2cc(C(F)(F)F)nn2-c2ccc(S(N)(=O)=O)cc2)cc1 [Celecoxib, reference compound] |  | 42.7 ± 3.1 µM |  | 25.6 ± 2.3 µM |  | IC50 (MCF-7; Homo sapiens, MCF7, read-out: IC50 (μM) MCF-7): 31.3 ± 2.5 µM; IC50 (HCT-116; Homo sapiens, HCT-116, read-out: IC50 (μM) HCT-116): 29.5 ± 2.1 µM
